# Assay results reported in ChEMBL document CHEMBL1201862, “PubChem BioAssay data set” (2004).
# Activity calls are given as the source filed them.
# Legend:
# [1] = target: T1, Carboxy-terminal domain RNA polymerase II polypeptide A small phosphatase 1 (Homo sapiens, UniProt Q9GZU7); assay: inhibitors of CTDSP1, concentration-response testing, biochemical assay, absorbance-based, actives from ultra-high-throughput screening (AID 540297); format: functional
# T1 sequence (Q9GZU7 whole entry): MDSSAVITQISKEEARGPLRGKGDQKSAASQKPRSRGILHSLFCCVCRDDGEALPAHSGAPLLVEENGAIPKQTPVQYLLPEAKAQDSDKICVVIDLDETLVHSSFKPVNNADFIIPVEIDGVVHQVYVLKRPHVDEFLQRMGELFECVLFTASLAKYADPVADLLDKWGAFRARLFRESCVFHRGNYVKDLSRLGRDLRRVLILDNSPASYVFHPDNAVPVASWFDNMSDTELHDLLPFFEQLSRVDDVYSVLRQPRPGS
# Cytochrome P450 2D6 = Cytochrome P450 2D6 (Homo sapiens, UniProt P10635);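 also: CYP2D6 member of a cytochrome P450 panel assay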
# [2] = Luminescence Cell-Based Dose Response HTS to Identify Inhibitors of 5'UTR Stem-Loop Driven Prion Protein mRNA Translation in H4 Neuroglioblastoma Cells. [Related pubchem assays: 1827 (Project Summary), 1813 (Primary HTS)]; format: functional
# [3] = inhibitors of SNCA 5'UTR-driven reporter translation, confirmation, H4 neuroglioma cells, luminescence (AID 1988); format: functional, cell-based
# [4] = inhibitors of firefly luciferase expression or activity, dose response, H4 neuroglioma cells, luminescence (AID 1990); format: functional, cell-based
# [5] = target: T2, Calpain-2 catalytic subunit (Sus scrofa, UniProt P43367); assay: pig calpain II inhibitor potency, dose response, biochemical, fluorogenic peptide substrate (AID 1420); format: functional
# T2 sequence (P43367 whole entry): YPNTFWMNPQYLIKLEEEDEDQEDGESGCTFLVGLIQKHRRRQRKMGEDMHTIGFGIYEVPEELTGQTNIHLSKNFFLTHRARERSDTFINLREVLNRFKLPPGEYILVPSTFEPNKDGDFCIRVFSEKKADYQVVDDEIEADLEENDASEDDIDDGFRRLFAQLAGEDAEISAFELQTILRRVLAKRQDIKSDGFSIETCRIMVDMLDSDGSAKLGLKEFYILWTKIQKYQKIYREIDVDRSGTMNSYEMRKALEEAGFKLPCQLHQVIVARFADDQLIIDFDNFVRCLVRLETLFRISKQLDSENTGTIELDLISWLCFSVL
# [6] = target: FAD-linked sulfhydryl oxidase ALR (Homo sapiens, UniProt P55789); assay: inhibitors of human ALR sulfhydryl oxidase, dose response, biochemical, H2O2 detection, luminescence, cherry-pick (AID 493248)
# [7] = P. falciparum Dd2 growth inhibitors, dose response, SYBR Green, dry powder samples (AID 1159566); format: functional, cell-based;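 also: potency for growth inhibition with lower SYBR green DNA signal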
# [8] = P. falciparum 3D7-ScDHODH growth inhibitors, dose response, SYBR Green, dry powder samples (AID 1159570); format: functional, cell-based;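 also: parasite growth measured after 72 hours of compound exposure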
# [9] = P. falciparum Dd2 growth inhibitors, dose response, SYBR Green, cherry-picked samples (AID 1159567); format: functional, cell-based
# [10] = P. falciparum ATP4 D1247Y mutant growth inhibitors, dose response, NITD609-resistant line, SYBR Green, dry powder (AID 1159571); format: functional, cell-based;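 also: parasites synchronized at ring stage by sorbitol before testing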
# Nonstructural protein 1 = Nonstructural protein 1 (Influenza A virus, UniProt Q194T2); format: functional, Influenza A virus (A/California/07/2009(H1N1))
# [11] = target: T3, High affinity choline transporter 1 (Homo sapiens, UniProt Q9GZV3); assay: CHT inhibitors, dose response, cell-based, 5-point CRC, membrane potential dye (AID 504840); format: functional
# T3 sequence (Q9GZV3 whole entry): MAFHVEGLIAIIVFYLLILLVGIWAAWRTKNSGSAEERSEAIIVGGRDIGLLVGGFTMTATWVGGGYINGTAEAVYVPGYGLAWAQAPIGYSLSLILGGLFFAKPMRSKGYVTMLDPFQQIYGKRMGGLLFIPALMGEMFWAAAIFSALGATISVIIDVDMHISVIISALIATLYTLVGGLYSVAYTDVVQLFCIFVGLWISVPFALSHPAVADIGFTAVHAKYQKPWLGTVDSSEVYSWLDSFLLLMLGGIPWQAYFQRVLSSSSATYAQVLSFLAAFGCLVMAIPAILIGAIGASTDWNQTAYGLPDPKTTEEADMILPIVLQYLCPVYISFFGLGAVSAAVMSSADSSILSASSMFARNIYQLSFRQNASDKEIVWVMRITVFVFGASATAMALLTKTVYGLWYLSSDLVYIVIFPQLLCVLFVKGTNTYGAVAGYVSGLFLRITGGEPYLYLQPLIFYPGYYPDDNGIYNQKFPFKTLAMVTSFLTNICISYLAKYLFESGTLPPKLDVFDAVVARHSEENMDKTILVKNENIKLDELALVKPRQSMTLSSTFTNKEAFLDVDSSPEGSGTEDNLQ
# [12] = inhibitors of clade B AD8 Env fusion, dose response, cell-based, cherry-pick (AID 652062); format: functional;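 also: luciferase signal from cell-cell fusion driven by HIV-1 clade B AD8 Env; potency is for inhibitors of fusion seen as a drop in luminescence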
# [13] = inhibitors of HIV Env-driven cell fusion, dose response, cherry-pick (AID 652057); format: functional, cell-based
# [14] = target: T4, Rac GTPase-activating protein 1 (Homo sapiens, UniProt Q9H0H5); assay: MgcRacGAP GTPase-activating activity inhibitors, confirmation, biochemical, ADP Hunter fluorescence, primary and confirmatory (AID 624330); format: functional
# T4 sequence (Q9H0H5 whole entry): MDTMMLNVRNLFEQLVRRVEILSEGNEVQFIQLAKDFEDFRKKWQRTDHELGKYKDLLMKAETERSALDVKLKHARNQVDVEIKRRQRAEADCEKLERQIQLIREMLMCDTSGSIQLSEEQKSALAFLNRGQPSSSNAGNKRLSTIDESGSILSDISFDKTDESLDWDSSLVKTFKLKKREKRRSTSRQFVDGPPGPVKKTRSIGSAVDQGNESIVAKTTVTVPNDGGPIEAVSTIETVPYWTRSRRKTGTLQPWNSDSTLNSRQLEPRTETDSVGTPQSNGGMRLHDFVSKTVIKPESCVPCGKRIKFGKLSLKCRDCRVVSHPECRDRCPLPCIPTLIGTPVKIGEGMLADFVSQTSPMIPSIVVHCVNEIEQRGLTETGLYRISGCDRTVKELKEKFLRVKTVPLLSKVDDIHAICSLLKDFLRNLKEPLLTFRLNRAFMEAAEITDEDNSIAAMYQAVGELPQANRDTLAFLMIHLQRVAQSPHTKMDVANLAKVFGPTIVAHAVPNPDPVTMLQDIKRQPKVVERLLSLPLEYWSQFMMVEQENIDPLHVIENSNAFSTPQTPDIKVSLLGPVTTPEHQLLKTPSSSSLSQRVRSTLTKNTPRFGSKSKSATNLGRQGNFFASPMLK
# [15] = cytotoxicity in HEK-293T cells, dose response, cytotoxicity control for TCR NF-kB inhibitor project, luminescence, T-cell screen hits (AID 489026); format: functional, cell-based;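 also: cells exposed to compound about 14 hours before the viability readout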
# [16] = target: T5, RNA-binding protein pos-1 (Caenorhabditis elegans, UniProt G5EF15); assay: inhibitors of POS-1/mex-3 RNA binding, dose response, biochemical, fluorescence polarization (AID 1964);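 also: purified POS-1 fused to maltose binding protein made in E. coli; potency of compounds blocking POS-1 binding to fluorescent RNA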
# T5 sequence (G5EF15 whole entry): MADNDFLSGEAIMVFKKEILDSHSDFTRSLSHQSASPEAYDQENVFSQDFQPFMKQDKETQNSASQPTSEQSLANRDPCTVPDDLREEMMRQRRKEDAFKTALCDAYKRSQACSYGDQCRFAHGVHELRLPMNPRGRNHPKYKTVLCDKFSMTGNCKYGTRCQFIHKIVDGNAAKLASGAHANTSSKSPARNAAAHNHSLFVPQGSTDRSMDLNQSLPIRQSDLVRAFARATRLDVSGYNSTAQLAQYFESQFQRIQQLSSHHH
# [17] = target: T6, Ubiquitin-conjugating enzyme E2 N (Homo sapiens, UniProt P61088); format: functional;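 also: Dose-response confirmation in a TR-FRET assay detecting UBC13-driven polyubiquitin chain formation, inhibition measured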
# T6 sequence (P61088 whole entry): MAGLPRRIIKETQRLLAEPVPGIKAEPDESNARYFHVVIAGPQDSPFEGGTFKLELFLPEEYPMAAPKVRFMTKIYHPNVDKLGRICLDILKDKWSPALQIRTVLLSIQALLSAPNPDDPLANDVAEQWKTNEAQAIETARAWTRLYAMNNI
# [18] = Luminescence Cell-Based Dose Retest to Confirm Inhibitors of Cancer Stem Cells. [Related pubchem assays (depositor defined):AID2717, AID2721]; format: functional; conditions: Homo sapiens
# Chain of FAD-linked sulfhydryl oxidase ALR (P55789 whole entry): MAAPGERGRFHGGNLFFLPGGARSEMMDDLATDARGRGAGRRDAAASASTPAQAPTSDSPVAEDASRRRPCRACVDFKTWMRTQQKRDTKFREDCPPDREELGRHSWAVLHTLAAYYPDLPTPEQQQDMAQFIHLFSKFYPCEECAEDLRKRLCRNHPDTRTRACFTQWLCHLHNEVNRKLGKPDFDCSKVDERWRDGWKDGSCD
# Chain of Nonstructural protein 1 (Q194T2 whole entry): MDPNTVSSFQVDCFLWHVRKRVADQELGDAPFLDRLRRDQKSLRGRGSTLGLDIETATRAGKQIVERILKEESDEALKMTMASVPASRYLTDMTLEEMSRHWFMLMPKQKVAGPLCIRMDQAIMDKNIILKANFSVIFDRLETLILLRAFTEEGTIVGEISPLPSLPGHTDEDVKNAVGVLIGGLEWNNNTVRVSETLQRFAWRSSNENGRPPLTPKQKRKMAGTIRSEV
# Chain of Cytochrome P450 2D6 (P10635 whole entry): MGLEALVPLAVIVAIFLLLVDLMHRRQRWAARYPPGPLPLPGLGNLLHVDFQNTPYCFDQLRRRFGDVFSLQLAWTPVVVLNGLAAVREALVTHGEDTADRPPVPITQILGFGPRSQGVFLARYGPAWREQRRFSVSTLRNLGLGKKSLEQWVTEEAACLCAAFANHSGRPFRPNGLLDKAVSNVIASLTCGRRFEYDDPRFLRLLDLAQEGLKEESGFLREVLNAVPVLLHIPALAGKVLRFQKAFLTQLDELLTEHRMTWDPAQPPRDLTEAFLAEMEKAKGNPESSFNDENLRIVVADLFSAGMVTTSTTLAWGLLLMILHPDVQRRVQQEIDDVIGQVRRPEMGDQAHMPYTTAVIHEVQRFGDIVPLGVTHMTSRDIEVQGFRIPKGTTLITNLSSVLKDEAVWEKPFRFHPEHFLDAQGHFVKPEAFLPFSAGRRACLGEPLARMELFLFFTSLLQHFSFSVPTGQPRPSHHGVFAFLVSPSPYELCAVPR
structure (smiles),measurement,setting,value
O=C(COC(=O)c1ccccc1Nc1cccc(C(F)(F)F)c1)NCc1ccco1,IC50,[1],6.38 µM (active)
same,AC50,Cytochrome P450 2D6,10 µM (inconclusive)
Cc1cccc(NC(S)=NCCSc2ccc(Cl)cc2)c1,EC50,[2],62.6 µM (active)
same,EC50,[3],84.8 µM (active)
same,EC50,[4],> 120 µM (not active)
same,IC50,[5],3.87 µM (not active)
O=C(c1ccc2c(c1)OCO2)N1CCN=C1SCc1cccnc1,AC50,[6],0.076 µM (active)
CC(C)NC(=O)Nc1ccc2c(c1)C(=O)N(C)[C@H]1CC[C@H](CC(=O)Nc3ccccc3)O[C@H]1CO2,AC50,[7],1.26 µM (active)
same,AC50,[8],1.23 µM (active)
same,AC50,[9],1.25 µM (active)
same,AC50,[10],1.23 µM (active)
COc1cc(O)c(C(CCN2CCCCC2)c2ccc(N(C)C)cc2)c(OC)c1 (centres undefined),AC50,[6],1.83 µM (active)
CCOc1ccc(-c2nc(C#N)c(N3CCN(Cc4ccccc4)CC3)o2)cc1,IC50,Nonstructural protein 1,> 100 µM (active)
COc1ccc(/C=C2\N=C(c3ccccc3)N(c3ccc(C(=O)O)cc3)C2=O)cc1OC,IC50,[11],12.6 µM (active)
CC(=O)c1c(C)[nH]c(C(=O)OCC(=O)Nc2ccc(Cl)c(S(=O)(=O)N(C)C)c2)c1C,AC50,[12],40.4 µM (active)
same,AC50,[13],2.76 µM (active)
C/C(=N\NC(=N)N)c1ccccc1,IC50,[11],13.5 µM (active)
CC(C)C(=O)N1CCN(c2ccccc2N)CC1,IC50,[5],0.734 µM (not active)
Cc1ccn2cc(-c3cccc(NC(=O)CCC(=O)O)c3)nc2c1,AC50,[6],0.618 µM (active)
CC(=O)N(C)c1ccc(OCC(O)CN(c2ccccc2C)S(=O)(=O)c2ccc(C)cc2)cc1 (centres undefined),IC50,[11],11.8 µM (active)
O=c1c2ccccc2nc(SCc2cn3ccsc3n2)n1-c1ccccc1F,IC50,[5],< 0.4 µM (not active)
COc1ccc(C(=O)N2CCN(c3ncnc4c(-c5ccccc5)nsc34)CC2)cc1,IC50,[5],4.3 µM (not active)
COc1ccc(N=Nc2cc(OC)c(N)cc2OC)cc1,IC50,Nonstructural protein 1,35.3 µM (active)
same,IC50,[14],35.2 µM (active)
Cc1ccnc2c1ccc1cccnc12,IC50,[15],> 80 µM (inactive)
same,IC50,Nonstructural protein 1,0.736 µM (active)
CC(=O)Nc1ccc(S(=O)(=O)NNC(=O)C(=O)NNc2ccccn2)cc1,EC50,[16],> 300 µM (not active)
same,IC50,[17],> 20 µM (inactive)
O=[N+]([O-])c1ccc2[nH]c3c(c2c1)CCCC3,AC50,[6],15.6 µM (active)
COc1ccc(-c2sc3cc4c(cc3c2C#CC2(N)CCCCC2)OCO4)cc1,AC50,[18],1.48 µM (active)
same,IC50,[17],> 20 µM (inactive)
CCCc1cc(C(=O)NN=C(S)NCc2ccccc2)cs1,IC50,[11],12.9 µM (active)
Cn1c(=O)c2c(nc(N/N=C/c3ccncc3)n2Cc2ccccc2)n(C)c1=O,AC50,[6],0.628 µM (active)
Cc1nc(SCC(=O)NC(=O)NC2CCCCC2)nc(C)c1C,IC50,[11],12.7 µM (active)
CCOc1ccccc1C(O)C1=CC(=O)c2ccccc2C1=O (centres undefined),IC50,[1],4.16 µM (active)
Cc1cc(/C=N/NC(=O)C(=O)NCc2ccccn2)c(C)n1-c1cccc(Br)c1,IC50,[5],< 0.4 µM (not active)
O=C(Cn1cncn1)N/N=C/c1cc([N+](=O)[O-])ccc1O,IC50,Nonstructural protein 1,3.9 µM (active)
C[C@H]1CN([C@@H](C)CO)C(=O)c2cc(NC(=O)Nc3ccc4c(c3)OCO4)ccc2O[C@H]1CN(C)S(=O)(=O)c1ccc(F)cc1,AC50,[12],39 µM (active)
same,AC50,[13],15.2 µM (active)
